Test results: patent publication US20220241259A1, “COMPOSITIONS AND METHODS USING TRIGONELLINE AND VITAMINS FOR PREVENTING OR TREATING CONDITIONS OR DISORDERS IN SKELETAL MUSCLE” (SOCIETE DES PRODUITS NESTLE S.A., priority 2019, published 2022)

How the values were obtained:
C57BL/6JRj male mice = test: Liver NAD+ in mice after oral gavage; format: in vivo; details: equimolar of 300 mg/kg trigonelline, 120 minutes, compared to the control (FIG. 5)
Experimental: 10 weeks C57BL/6JRj male mice received trigonelline (sigma #T5509) or fenugreek seed extract enriched in trigonelline (40.45% trigonelline) by oral gavage (equimolar of 300 mg/kg trigonelline, n=8/group). After 120 minutes treatment, the liver was harvested and flash frozen in liquid nitrogen. NAD+ was measured in liver using an enzymatic method adapted from Dall, M., et al., Mol Cell Endocrinol, 2018. 473: p. 245-256.

[1] = tested on: Human Skeletal Muscle Myotubes (HSMM); test: Colorimetric NAD+ quantification in differentiated human primary myoblasts; format: cell-based; details: 16 h, different doses, compared to the control (FIG. 4)
Experimental: After one day, the differentiation is induced by a medium change for 4 days. Cells were treated with synthetic trigonelline monohydrate (FIG. 4A) or with Fenugreek seed extract enriched in trigonelline containing 40.45% trigonelline (FIG. 4B) for 16 h at difference doses. NAD+ was measured using colorimetric NAD+ quantification assay (Biovision NAD+/NADH Quantitation Colorimetric Kit #k337-100).

[2] = tested on: Human Skeletal Muscle Myotubes (HSMM); details: 6 h
Experimental: Human primary myoblasts from two different donors were seeded in 6 well plates at a density of 200′000 cells per well in skeletal muscle growth medium (SKM-M, AMSbio). After one day, the differentiation was induced by a medium change for 4 days using differentiation culture medium (Gibco No. 31330-028). Cells were treated with isotopically labelled trigonelline (^13C carbonyl; 3^2H on methyl) for 6 h.
Cell extracts were separated on a Vanquish UHPLC+ focused LC system (Thermo Scientific) with a hydrophilic liquid chromatography (HILIC) iHILIC-Fusion(P) column (Hilicon) carrying the dimensions 150×2.1 mm, 5 μm and a guard column (iHILIC-fusion(P), Hilicon) in front. The separation of metabolites was achieved by applying a linear solvent gradient in normal phase at 0.25 mL/min flow rate and 35° C. of temperature. As mobile phase, solvent A was water with 10 mM ammonium acetate and 0.04% (v/v) ammonium hydroxide, pH ˜9.3, and solvent B was acetonitrile.
The eluting metabolites were analyzed with an Orbitrap Fusion Lumos mass spectrometer (Thermo Scientific) with a heated electrospray ionization (H-ESI) source in positive and negative mode at a resolution of 60,000 at m/z of 200. Instrument control and data analysis were conducted using Xcalibur (Thermo Scientific).

C. elegans [3] = details: 1 mM, day 8 and day 11 old worms (FIG. 7D)
Excerpt: 45 to 60 worms per condition were manually scored for mobility after poking. Worms that were unable to respond to any repeated stimulation were scored as dead. […] Trigonelline treatment and experimental measurements were started at Day 1 of wild type N2 worm adulthood, in a regimen of chronic exposure til experiments termination.

C. elegans [4] = details: 1 mM, chronic exposure from Day 1 adulthood (FIG. 7A)
Experimental: Worm lifespan tests were performed using about 100 animals per condition and scored manually every other day. Trigonelline treatment and experimental measurements were started at Day 1 of wild type N2 worm adulthood, in a regimen of chronic exposure till experiments termination.

C. elegans [5] = details: 1 mM
Experimental: C. elegans mobility test was performed using the Movement Tracker software (Mouchiroud, L. et al. Curr Protoc Neurosci 77, 8.37.1-8.37.21 (2016)). The experiments were repeated at least twice. Trigonelline treatment and experimental measurements were started at Day 1 of wild type N2 worm adulthood, in a regimen of chronic exposure till experiments termination.

[6] = tested on: RW1596 (myo-3p::GFP) worms; details: 1 mM trigonelline chloride, 11 day old worms vs age matched control
Experimental: RW1596 (myo-3p::GFP) worms were collected at Day 1 (young adults) and at Day 11 (aged animals) for muscle integrity assessment. Worms were immobilized with tetramisole and analyzed by confocal microscopy, to assess the muscle fibers morphology shown by GFP fluorescence imaging. Trigonelline treatment with 1 mM trigonelline chloride and experimental measurements were started at Day 1 of wild type N2 worm adulthood, in a regimen of chronic exposure till experiments termination.

wild type N2 worms = details: 1 mM trigonelline chloride, day 8 old worms (FIG. 8)
Experimental: Absolute quantification of the mtDNA copy number in wild type N2 worms was performed by real-time PCR. Relative values for nduo-1, and act-1 were compared within each sample to generate a ratio representing the relative level of mitochondrial DNA per nuclear genome. The average of at least two technical repeats was used for each biological data point. Each experiment was performed on at least ten independent biological samples (individual worms). Trigonelline treatment with 1 mM trigonelline chloride and experimental measurements were started at Day 1 of wild type N2 worm adulthood, in a regimen of chronic exposure till experiments termination.

C[n+]1cccc(C(=O)O)c1.[OH-] [chemically synthesized trigonelline]
NAD+ content in the liver (C57BL/6JRj male mice): significant increase
NAD+ content [1]: significant increase

[2H]C([2H])([2H])[n+]1cccc([13C](=O)[O-])c1 [labelled trigonelline]
relative abundance of labelled NAD+ (M+ 1) ([2]; labelled trigonelline 500 μm, vs naturally occurring NAD+ control (FIG. 2B)): increase in relative abundance of labelled NAD+ (M+ 1)

C[n+]1cccc(C(=O)O)c1 [trigonelline chloride]
stimulated mobility score (percentage of worms responsive to a physical stimulus) (C. elegans [3]): more responsive to a physical stimulus than the control
lifespan increase (C. elegans [4]): 21%
distance travelled during spontaneous mobility assay (C. elegans [5]; advanced aging phase, compared to control (FIG. 7C)): significantly increased
mean speed during spontaneous mobility assay (C. elegans [5]; from day 1 adulthood, compared to control (FIG. 7B)): increased the mean speed

C[n+]1cccc(C(=O)[O-])c1 [trigonelline, 1-methylpyridin-1-ium-3-carboxylate]
NAD+ relative concentration ([2]; 500 μm, HSMM from 2 donors, LC-MS, relative to control (FIG. 2A)): enhancement of NAD+
myofibrillar structure (GFP-tagged myosin) [6]: improved more organized myofibrillar structure
mitochondrial (nduo-1) relative to nuclear (act-1) DNA ratio (wild type N2 worms): higher than in the control group
